Data: patent US20170189366A1, “METHOD FOR TREATING DISORDERS RELATED TO COMPLEMENT ACTIVATION” (CASE WESTERN RESERVE UNIVERSITY, priority 2006, published 2017)

Assays:
[1] = tested on: C3b activation on RPE-43 cell line; assay: Alternative pathway-dependent amplification of complement activation on C3b-seeded RPE-43 cell line; type: cell-based; details: after addition of C3, factor B, factor D, factor H, read-out: inhibition of further C3b activation
Text: FIGS. 1A-C are a series of graphs showing the ability of an amidine compound according to the present invention to inhibit alternative pathway-dependent amplification of C3 cleavage. In FIG. 1A, factor B, factor D, and C3 were mixed in the absence or presence of increasing concentrations of the amidine compound and generation of C3a was quantified by ELISA. In FIG. 1B, factor B, factor D, C3, and a limiting amount of factor H were mixed in the absence or presence of two doses of the amidine compound following initial deposition of C3b on Bruch's membrane via anti-CEP initiated classical pathway activation. In FIG. 1C, factor B, factor D, C3, and a limiting amount of factor H were mixed in the absence or presence of two doses of the amidine compound following initial deposition of C3b on the RPE-43 cell line by anti-class I monomorphic antibody; and To determine how effective FUT-175 is in preventing alternative pathway-dependent amplification of complement activation on Bruch's membrane and RPE cells, we seeded purified Bruch's membrane from an AMD patient and the RPE-43 cell line with C3b (as would occur with anti-CEP autoantibodies) by sensitization with anti-CEP and anti-HLA monomorphic monoclonal antibodies, respectively, followed by incubation with purified C1, C4, C2, and decay of C1 and C2. […]

[2] = tested on: laser-induced choroidal neovascularization; assay: Murine laser-induced CNV model; type: in vivo, mouse; details: i.p. injection
Text: FIGS. 2A-B are a series of flat mounts showing the effects on lesion size of the amidine compound in a laser-induced CNV mouse model.
As part of our exploration of different strategies for inhibiting complement activation intraocularly so as to arrive at what methodology could be most efficacious for treating AMD patients clinically, we utilized the standard murine CNV model and analyzed the effect of an i.p. injection of FUT-175. As shown diagrammatically in FIGS. 2A-B, the drug reduced lesion size by >80%.

Question: How did the inhibition at 0.3 µM [1] turn out when N=C(N)Nc1ccc(C(=O)Oc2ccc3cc(C(=N)N)ccc3c2)cc1 [FUT-175, 6-amidino-2-napthyl-4-guanidinobenzoate dimethanesulfonate] was run?
Answer: ~50%

Question: And the “reduction of lesion size” value [2]?
Answer: > 80%
